{
  "source": "patent US20050272755A1",
  "about": "“Method for treating abnormal cell growth” (priority 2004, published 2005)",
  "origin": "cited, not measured here",
  "key": {"colorectal cancer": {"test_system": "colorectal cancer", "conditions": "colorectal cancer patients resistant to 5-FU"}, "[1]": {"test_system": "metastatic colorectal cancer"}},
  "note": "Where a name gives a salt, the structure may show the parent alone. Read-outs that look alike come from different tables or passages of the source.",
  "data": [
    {"smiles": "CCc1c2c(nc3ccc(OC(=O)N4CCC(N5CCCCC5)CC4)cc13)-c1cc3c(c(=O)n1C2)COC(=O)[C@]3(O)CC", "note": "[CPT-11, irinotecan hydrochloride trihydrate]", "values": [
      {"measurement": "survival compared with 5-FU/FA best infusional regimens", "setting": "colorectal cancer", "result": "longer survival"},
      {"measurement": "survival compared with supportive care only", "setting": "colorectal cancer", "result": "longer survival"}
    ]},
    {"smiles": "CCCCCOC(=O)Nc1nc(=O)n([C@@H]2O[C@H](C)[C@@H](O)[C@H]2O)cc1F", "note": "[capecitabine, 5′-deoxy-5-fluoro-N-[(pentyloxy)-carbonyl]-cytidine]", "values": [
      {"measurement": "median survival", "setting": "[1]; European trial", "result": 13.3, "unit": "months"},
      {"measurement": "median survival", "setting": "[1]; US trial", "result": 12.5, "unit": "months"},
      {"measurement": "grade 3-4 toxicity: diarrhea", "setting": "[1]; capecitabine treatment arms", "result": 14, "unit": "%"},
      {"measurement": "grade 3-4 toxicity: hand-foot syndrome", "setting": "[1]; capecitabine treatment arms", "result": 17, "unit": "%"},
      {"measurement": "Overall response rate", "setting": "[1]; first of the two phase III studies ('respectively'; Europe N=602 named first), capecitabine 2500 mg/m^2/day for 14 days every 3 weeks", "result": 21, "unit": "%"},
      {"measurement": "Overall response rate", "setting": "[1]; second of the two phase III studies ('respectively'; US N=605 named second)", "result": 21, "unit": "%"}
    ]}
  ]
}
